According to patent US8017828B2, “Utilization of rare sugars in plant or microorganism” (Shikoku Research Institute Incorporated, priority 2004, dated 2011):

Assays:
[1] = system: Bletilla striata; test: Growth and bulb formation of Bletilla striata seedlings in tissue culture; type: in vivo
Protocol: Seedling plants of Bletilla striata obtained by sterile sowing were used in an experiment.
As for the Bletilla striata, by using ½ strength MS medium supplemented with D-psicose, D-allose, D-glucose or D-frucose at a concentration of from 0.005% to 0.05% (w/v), the seedling plants were aseptically transplanted on Feb. 27, 2003, and then, cultivation was carried out under the same conditions as those of the strawberry in Example 3. Then, on Jun. 30, 2003, a survey was carried out with regard to the growth conditions of aerial part and underground part, the number of buds, the ratio of bulb formation, the bulb size and the like.

[2] = system: Salsola komarovii; test: Seed germination, short-time and continuous treatment (Experiment 2); type: in vivo; settings: immersed in 1% solution for 24 hours, in the end; DW 28%
Protocol: In order to clarify an effect of a short-time treatment, 50 seeds of Salsola komarovii, tomato (Home Momotaro) and sunny lettuce (Red Wave), and 20 seeds of morning glory (Tairin Zaki Kongo) were immersed in any of deionized water, 1% D-psicose, 1% D-allose and 1% L-galactose for 24 hours (25° C., dark), respectively, then, they were lightly washed with deionized water. Then, the seeds were sown in a dish with a diameter of 9 cm having a filter paper placed therein, and germinated under the same condition by poring 5 to 10 ml of deionized water therein. Further, for the comparison, a continuous treatment with 1% D-psicose was carried out in accordance with the same procedure.

[3] = system: Fusarium oxysporum, Glomerella cingulata, Verticillium dahliae and Botrytlis cinerea; test: Mycelial elongation of plant pathogenic bacteria on agar with rare sugar; type: cell-based; settings: 0.05% (w/v) in agar medium, 23° C., 7 days
Protocol: By using as targets, Fusarium oxysporum, Glomerella cingulata, Verticillium dahliae and Botrytlis cinerea, which are typical plant pathogenic bacteria, an effect of a rare sugar on mycelial elongation was examined.
As the test bacterial strains, IFO 31213 strain, IFO 6425 strain, IFO 9765 strain and IFO 9760 strain were used.
After the cultivation, the length of the extending mycelium was measured.

[4] = system: strawberry plant (variety: “smile ruby”); test: Growth of strawberry seedlings in tissue culture medium with sugar; type: in vivo; settings: increased (high) concentration in medium
[5] = system: cherry tomato plant “mini carol”; test: Hydroponic growth of cherry tomato with 0.05 or 0.5 mM sugar, 10 days; type: in vivo; settings: 0.5 mM
Protocol: Subsequently, a cherry tomato plant “mini carol” was transplanted for permanent planting to a hydroponic apparatus, and a total of 7 treated plots in which a plot without addition (control plot) was added to 6 treated plots with the use of a nutrient solution supplemented with 0.05 mM or 0.5 mM D-psicose, D-fructose or mannitol were prepared. A survey was carried out with regard to the growth at 10 days after the permanent planting. […] The stem diameter was the smallest in the case of 0.5 mM D-psicose. The number of leaves was the smallest in the case of 0.5 mM D-psicose and 0.5 mM mannitol. The root length was the smallest in the case of 0.5 mM psicose.

[6] = system: stress/hormone response genes; type: in vivo, Lotus japonicus; settings: 5 mM in medium, first one week
Protocol: A pattern of induction of a gene in the case where D-psicose was added to a medium for Lotus japonicus was examined by an experiment using a cDNA array.
Lotus japonicus was germinated from a seed and cultivated in an L&B medium (hydroponic culture medium). When the seed was germinated, Mesorhizobium loti was also inoculated. This condition was applied to both a control plot and a plot of D-psicose addition. With regard to the array, a microarray on which 14,000 clones were immobilized by using a Lotus japonicus cDNA array was used. After test plants were germinated, they were cultivated with an L&B medium supplemented with D-psicose or without addition for 1 week in a growth cabinet (22° C., 30,000 Lux). After total RNA was extracted from the plant body, it was labeled with ^33P in the process where it was converted to cDNA, and then hybridization was carried out. Reading was carried out using STORM 850 and analysis was carried out with Array Vision.

[7] = system: cherry tomato plant “petite”; test: Hydroponic growth of cherry tomato with 0.05 or 0.5 mM sugar, 40 days; type: in vivo; settings: 0.05 mM, until 40 days
Protocol: Further, on Dec. 18, 2003, a cherry tomato plant “petite” was transplanted for permanent planting to a hydroponic apparatus, and a total of 7 treated plots in which a plot without addition was added to 6 treated plots with the use of a nutrient solution supplemented with 0.05 mM or 0.5 mM D-psicose, D-fructose or mannitol were prepared. A survey was carried out with regard to the growth until 40 days after the permanent planting. As a result, the stem length was the shortest in the cases of 0.05 mM D-psicose and 0.05 mM D-fructose. Although a significant difference in the stem diameter was not observed among treated plots, however, a tendency was observed that the stem was slightly thinner in the treated plot of any of the sugars at a high concentration. A significant difference in the number of leaves was not observed among treated plots.

Row | Structure (SMILES) | Aerial part weight ([1]; sugar 0.005% in medium) [g] | Bulb size ([1]; sugar 0.005% in medium) [mm] | Maximum plant length ([1]; sugar 0.005% in medium) [cm] | Maximum root length ([1]; sugar 0.005% in medium) [cm] | Number of buds ([1]; sugar 0.005% in medium) | Number of leaves ([1]; sugar 0.005% in medium) | Ratio of bulb formation ([1]; sugar 0.005% in medium) [%] | Underground part weight ([1]; sugar 0.005% in medium) [g] | Aerial part weight ([1]; sugar 0.02% in medium) [g] | Bulb size ([1]; sugar 0.02% in medium) [mm] | Maximum plant length ([1]; sugar 0.02% in medium) [cm] | Maximum root length ([1]; sugar 0.02% in medium) [cm] | Number of buds ([1]; sugar 0.02% in medium) | Number of leaves ([1]; sugar 0.02% in medium) | Ratio of bulb formation ([1]; sugar 0.02% in medium) [%] | Underground part weight ([1]; sugar 0.02% in medium) [g] | Aerial part weight ([1]; sugar 0.05% in medium) [g] | Bulb size ([1]; sugar 0.05% in medium) [mm] | Maximum plant length ([1]; sugar 0.05% in medium) [cm] | Maximum root length ([1]; sugar 0.05% in medium) [cm] | other results
1 | O=C[C@H](O)[C@H](O)[C@H](O)[C@H](O)CO [D-allose] | 0.19 | 4.5 | 7.6 | 4.2 | 3.4 | 4.2 | 84 | 0.10 | 0.19 | 4.2 | 7.5 | 4.1 | 3.6 | 3.9 | 85 | 0.12 | 0.25 | 4.9 | 7.7 | 4.2 | growth when the concentration added to the medium was increased ([1]; increased (high) concentration in medium): the growth thereof was delayed; Number of buds ([1]; sugar 0.05% in medium): 2.7; Number of leaves ([1]; sugar 0.05% in medium): 4.3; Ratio of bulb formation ([1]; sugar 0.05% in medium): 85%; Underground part weight ([1]; sugar 0.05% in medium): 0.12 g; germination rate [2]: 16%; inhibitory effect on mycelial elongation [3]: has an effect on inhibiting mycelial elongation; growth when the concentration added to the medium was increased [4]: the growth thereof was delayed
2 | O=C(CO)[C@@H](O)[C@H](O)[C@H](O)CO [D-fructose, reference compound] | 0.16 | 5.2 | 6.5 | 4.6 | 3.7 | 3.5 | 44 | 0.15 | 0.19 | 4.5 | 6.6 | 5.1 | 3.3 | 4.6 | 67 | 0.14 | 0.19 | 4.7 | 7.3 | 4.1 | stem length, rank among 7 treated plots [5]: the longest; activation of gene group that responds to pathogenic bacteria and environmental stresses [6]: not observed; Number of buds ([1]; sugar 0.05% in medium): 3.3; Number of leaves ([1]; sugar 0.05% in medium): 4.0; Ratio of bulb formation ([1]; sugar 0.05% in medium): 69%; Underground part weight ([1]; sugar 0.05% in medium): 0.10 g; stem length, rank among 7 treated plots [7]: the shortest
